Data as given in ChEMBL document CHEMBL1137804, “Natural product-based anti-HIV drug discovery and development facilitated by the NCI developmental therapeutics program” (J Nat Prod, 2001).
In brackets after ≈: the same amount, converted by molar mass.

How the values were obtained:
[1] = tested on: Human immunodeficiency virus 2; experiment: Antiviral activity against HIV2; assay type: functional, organism-based
[2] = tested on: Human immunodeficiency virus 1; experiment: Antiviral activity against HIV1 LAI in human MT2 cells assessed as virus-induced cytopathic effect after 72 hrs; assay type: functional; conditions: Human immunodeficiency virus 1, LAI, MT2, 72 h; read-out: ED50 (the source's name)
[3] = Therapeutic index, ratio of cytotoxicity against human MT2 cells to EC50 for HIV1 LAI; assay type: cell-based; conditions: read-out: TI
[4] = target: Human immunodeficiency virus type 1 integrase (Human immunodeficiency virus 1, UniProt Q7ZJM1); experiment: Inhibition of HIV1 integrase-catalyzed disintegration activity
[5] = tested on: Human immunodeficiency virus 1; experiment: Antiviral activity against HIV1 RF in human CEM-SS cells assessed as inhibition of virus-induced cytopathic effect; assay type: functional, organism-based; conditions: Human immunodeficiency virus 1, RF
[6] = Therapeutic index, ratio of cytotoxicity against human CEM-SS cells to EC50 for HIV1 RF; assay type: cell-based; conditions: read-out: TI
[7] = target: Human immunodeficiency virus type 1 reverse transcriptase (Human immunodeficiency virus 1, UniProt Q72547); experiment: Inhibition of HIV1 reverse transcriptase
[8] = tested on: Human immunodeficiency virus 1; experiment: Antiviral activity against HIV1 RF in human H9 cells assessed as inhibition of virus-induced cytopathic effect by formazan-based conventional colorimetric technique; assay type: functional, organism-based; conditions: Human immunodeficiency virus 1, RF
[9] = Therapeutic index, ratio of cytotoxicity against human H9 cells to EC50 for HIV1 RF; assay type: cell-based; conditions: read-out: TI
[10] = tested on: Human immunodeficiency virus 1; experiment: Antiviral activity against azidothymidine-resistant HIV1 G9106; assay type: functional, organism-based; conditions: Human immunodeficiency virus 1, G9106
[11] = tested on: Human immunodeficiency virus 1; experiment: Antiviral activity against pyridinone-resistant HIV1 A17; assay type: functional, organism-based; conditions: Human immunodeficiency virus 1, A17
[12] = tested on: Human immunodeficiency virus 1; experiment: Antiviral activity against HIV1 in human CEM-SS cells assessed as inhibition of virus-induced cytopathic effect; assay type: functional, organism-based; conditions: Human immunodeficiency virus 1, CEM-SS
[13] = Therapeutic index, ratio of cytotoxicity against human H9 cells to EC50 for HIV1 3B; assay type: cell-based; conditions: read-out: TI
[14] = tested on: Human immunodeficiency virus 1; experiment: Antiviral activity against HIV1 RF in human MT2 cells assessed as virus-induced cytopathic effect after 72 hrs; assay type: functional; conditions: Human immunodeficiency virus 1, RF, MT2, 72 h; read-out: ED50 (the source's name)
[15] = Therapeutic index, ratio of cytotoxicity against human MT2 cells to EC50 for HIV1 RF; assay type: cell-based; conditions: read-out: TI
[16] = tested on: Human immunodeficiency virus 1; experiment: Antiviral activity against HIV1 3B in human H9 cells assessed as inhibition of virus-induced cytopathic effect by formazan-based conventional colorimetric technique; assay type: functional, organism-based; conditions: Human immunodeficiency virus 1, 3B
H9 = experiment: Cytotoxicity against human H9 cells; assay type: cell-based
[17] = tested on: Human immunodeficiency virus 1; experiment: Antiviral activity against HIV1 RF in human CEM cells; assay type: functional, organism-based; conditions: Human immunodeficiency virus 1, RF, CCRF-CEM
[18] = tested on: Human immunodeficiency virus 1; experiment: Antiviral activity against HIV1 Rojo in human CEM cells; assay type: functional, organism-based; conditions: Human immunodeficiency virus 1, Rojo, CCRF-CEM

Chain of Human immunodeficiency virus type 1 integrase (Q7ZJM1 whole entry): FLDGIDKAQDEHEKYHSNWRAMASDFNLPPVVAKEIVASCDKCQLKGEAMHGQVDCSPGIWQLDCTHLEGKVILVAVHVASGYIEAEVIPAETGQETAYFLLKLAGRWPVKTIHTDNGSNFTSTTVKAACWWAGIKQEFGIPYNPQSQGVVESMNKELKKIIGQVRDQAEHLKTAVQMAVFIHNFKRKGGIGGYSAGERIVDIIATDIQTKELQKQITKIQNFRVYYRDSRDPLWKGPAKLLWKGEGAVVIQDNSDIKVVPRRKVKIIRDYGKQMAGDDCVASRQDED

## CSC[C@H](NC(=O)COc1cccc2cnccc12)C(=O)N[C@@H](Cc1ccccc1)[C@H](O)C(=O)N1CSC(C)(C)[C@H]1C(=O)NC(C)(C)C
[1]
  EC50: 0.02 µM

## O=C(/C=C/c1ccc(O)c(O)c1)O[C@@H]1C[C@](O)(C(=O)O)C[C@@H](OC(=O)/C=C/c2ccc(O)c(O)c2)[C@H]1O
[2]
  EC50: 1 mg/L (≈ 1.94 µM)
[3]
  selectivity ratio: 150
[4]
  IC50: 1.28 µM

## O=C(O[C@@H]1C[C@](OC(=O)c2cc(O)c(O)c(O)c2)(C(=O)O)C[C@@H](OC(=O)c2cc(O)c(O)c(O)c2)[C@H]1OC(=O)c1cc(O)c(O)c(O)c1)c1cc(O)c(O)c(O)c1
[5]
  EC50: 0.5 µM
[6]
  selectivity ratio: 20
[7]
  IC50: 0.8 µM

## CSC[C@H](NC(=O)COc1cccc2cnccc12)C(=O)N[C@@H](Cc1ccccc1)[C@H](O)C(=O)N1CSC[C@H]1C(=O)NC(C)(C)C
[8]
  EC50: 0.02 µM
[9]
  selectivity ratio: > 4.6

## CC(C)=CCOc1c(CC=C(C)C)c(O)nc2ccccc12
[5]
  EC50: 1.64 µM
[6]
  selectivity ratio: 17

## CN1CCCCC1c1c(O)cc(O)c2c(=O)cc(-c3ccccc3)oc12 (centres undefined)
[5]
  EC50: 0.26 µM
[6]
  selectivity ratio: 3

## COC(=O)C(=O)O[C@]1(C(=O)O)C[C@@H](OC(=O)/C=C/c2ccc(O)c(O)c2)[C@H](O)[C@H](OC(=O)/C=C/c2ccc(O)c(O)c2)C1
[2]
  EC50: 4 mg/L (≈ 6.64 µM)
[3]
  selectivity ratio: 87
[4]
  IC50: 0.946 µM

## CCCc1cc(=O)oc2c3c(c4c(c12)OC(C)(C)CC4)O[C@@H](C)[C@H](C)[C@@H]3O [7,8-DIHYDROCALANOLIDE B]
[5]
  EC50: 0.1 µM
[6]
  selectivity ratio: 99.8

## C=CC(C)(C)C1(CC=C(C)C)C(=O)Nc2ccccc2C1=O (centres undefined) [BUCHAPINE]
[5]
  EC50: 0.94 µM
[6]
  selectivity ratio: 31
[7]
  IC50: 10 µM

## CCCc1cc(=O)oc2c3c(c4c(c12)OC(C)(C)C=C4)O[C@H](C)[C@@H](C)[C@@H]3O [CALANOLIDE A]
[5]
  EC50: 0.2 µM
[6]
  selectivity ratio: 103
[10]
  EC50: ≤ 0.03 µM
[11]
  EC50: ≤ 0.6 µM

## CC(C)=CCC[C@]1(C)C=Cc2c(ccc3c2C(=O)C(O)=C(C2=C(C4=C(O)C(=O)c5c(ccc6c5C=C[C@@](C)(CCC=C(C)C)O6)C4=O)C(=O)c4c(ccc5c4C=C[C@@](C)(CCC=C(C)C)O5)C2=O)C3=O)O1 [CONOCURVONE]
[12]
  EC50: 0.02 µM

## CCCc1cc(=O)oc2c3c(c4c(c12)OC(C)(C)C=C4)O[C@@H](C)[C@H](C)[C@@H]3O [COSTATOLIDE]
[5]
  EC50: 0.2 µM
[6]
  selectivity ratio: > 20

## O=c1[nH]cnc2c1ncn2[C@H]1CC[C@@H](CO)O1 [DIDANOSINE]
[13]
  selectivity ratio: 1760
[9]
  selectivity ratio: 1760

## Cc1cc(O)c(C=O)c2c1C(=O)Oc1c(COC(=O)/C=C/C(=O)O)c(O)c(C(=O)O)c(C)c1O2 [FUMARPROTOCETRARIC ACID]
[14]
  EC50: 8.4 µM
[15]
  selectivity ratio: > 4.61

## Nc1ccn([C@@H]2CS[C@H](CO)O2)c(=O)n1 [LAMIVUDINE]
[16]
  EC50: 0.06 µM
[8]
  EC50: 0.06 µM

## Nc1ncnc2c1ncn2[C@@H]1O[C@H](CO)C[C@@H]1F [LODENOSINE]
[16]
  EC50: 1.16 µM
[8]
  EC50: 1.16 µM
[13]
  selectivity ratio: > 17
[9]
  selectivity ratio: > 17

## COc1cc(C)cc2c(-c3c(O)cc(O)c4c3C[C@@H](C)N[C@@H]4C)cc(-c3cc(-c4c(O)cc(O)c5c4C[C@@H](C)N[C@@H]5C)c4cc(C)cc(OC)c4c3O)c(O)c12 [MICHELLAMINE A]
[12]
  EC50: 1 µM

## CO[C@@H]1C[C@@H](C[C@H]2CC[C@H](C)[C@H]([C@@H](C)C(=O)O)O2)O[C@]2(O[C@](C)([C@H]3CC[C@@](C)([C@@H]4O[C@@H]([C@H]5O[C@@](O)(CO)[C@H](C)C[C@@H]5C)C[C@@H]4C)O3)C[C@H]2C)[C@@H]1C [NIGERICIN]
[8]
  EC50: 0.006 µM
H9
  IC50: 0.14 µM

## COc1cc2c[n+](C)c3c4cc5c(cc4ccc3c2cc1OC)OCO5 [NITIDINE CHLORIDE]
[5]
  EC50: 14 µM
[6]
  selectivity ratio: 3

## C=CC(C)(CC/C=C(\C)CCC=C(C)C)c1cc(O)c(O)c(-c2cc(C(C)(C=C)CC/C=C(\C)CCC=C(C)C)cc(O)c2O)c1 (centres undefined) [PELTATOL A]
[12]
  EC50: 8 µM

## CC(C)CC(=O)N[C@H](C(=O)N[C@H](C(=O)N[C@@H](CC(C)C)[C@@H](O)CC(=O)N[C@@H](C)C(=O)N[C@@H](CC(C)C)[C@@H](O)CC(=O)O)C(C)C)C(C)C [PEPSTATIN]
[8]
  EC50: 51.8 µM
[17]
  EC50: 69 µM
[18]
  EC50: 150 µM

## CC(=O)O[C@@]12C[C@@H](C)[C@@]3(O)[C@@H](C=C(CO)C[C@]4(O)C(=O)C(C)=C[C@@H]34)[C@@H]1C2(C)C [PROSTRATIN]
[12]
  EC50: ≤ 0.132 µM

## Cc1cn([C@H]2C=C[C@@H](CO)O2)c(=O)[nH]c1=O [STAVUDINE]
[16]
  EC50: 0.06 µM
[8]
  EC50: 0.06 µM

## C=C1C(=O)[C@]23C[C@H]1CC[C@H]2[C@]1(C)CCC[C@@](C)(C(=O)O)[C@H]1C[C@@H]3OC(C)=O [XYLOPINIC ACID]
[12]
  EC50: ≤ 0.9 µM

## Nc1ccn([C@H]2CC[C@@H](CO)O2)c(=O)n1 [ZALCITABINE]
[16]
  EC50: 0.001 µM
[8]
  EC50: 0.001 µM
[13]
  selectivity ratio: 200
[9]
  selectivity ratio: 200

## Cc1cn([C@H]2C[C@H](N=[N+]=[N-])[C@@H](CO)O2)c(=O)[nH]c1=O [ZIDOVUDINE]
[16]
  EC50: 0.001 µM
[8]
  EC50: 0.001 µM
[13]
  selectivity ratio: > 1000
[9]
  selectivity ratio: > 1000
